The values below come from ChEMBL document CHEMBL1201862, “PubChem BioAssay data set” (2004).

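Values below derive from 48-hour exposures of cells grown in 96-well plates, with endpoints linearly interpolated between the two concentrations bracketing the appropriate inhibition level. Abbreviation: GI50, concentration required for 50% inhibition of growth.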 Activity calls are given as the source filed them. Cut-off read from the data, not from the text of the source: active = GI50 up to about 1.1 µM and inactive = higher. Where only a bound is given, the exact number is not on record here.

Some test systems named below: CAKI-1; LOX IMVI; UACC-62; T47D; OVCAR-8; OVCAR-4; Hs-578T; OVCAR-5; HL-60; HOP-62; PC-3; SR; MCF7; SK-OV-3; RXF 393; U-251; KM12; TK-10; BT-549; NCI/ADR-RES.
Common to all, as to assay: DTP human tumour cell line panel, 48 h

A word on the GI50: it is the concentration giving 50% growth inhibition. Regarding `CCN(CC)CC(O)c1ccc2ccc3ccccc3c2c1` (stereo not given), the GI50 with CAKI-1 was 13.1 µM (inactive); in the assay on LOX IMVI, 17.9 µM (inactive); with UACC-62, 15.3 µM (inactive); with T47D, 20 µM (inactive); in the assay with OVCAR-8, 16.7 µM (inactive); with OVCAR-4, 17.4 µM (inactive). Moreover, the GI50 was 18.7 µM (inactive) in the assay with Hs-578T; 13.6 µM (inactive) with OVCAR-5; 14.1 µM (inactive) in the assay on HL-60; 16.1 µM (inactive) in the assay with HOP-62; 15.8 µM (inactive) in the assay with PC-3; 5.69 µM (inactive) with SR. Further, the GI50 with MCF7 was 14.8 µM (inactive); in the assay on SK-OV-3, 16 µM (inactive); in the assay with RXF 393, 16.8 µM (inactive); in the assay with U-251 it was 13.3 µM (inactive); in the assay on KM12, 15.4 µM (inactive); with TK-10 it was 15.8 µM (inactive). For the same compound, the GI50 is 15.8 µM (inactive) with BT-549 and 16.3 µM (inactive) in the assay with NCI/ADR-RES.

Consider `CC1(C)C/C=C\CCC(O)C(O)CCC(C)(C)C1=O` (stereo not given), for which the GI50 in the assay on CAKI-1, in the assay on LOX IMVI, in the assay on UACC-62, with T47D, in the assay with OVCAR-8 and with OVCAR-4 was > 100 µM (inactive) each time. In addition, the GI50 in the assay on Hs-578T, in the assay with OVCAR-5, in the assay with HL-60, in the assay on HOP-62, with PC-3 and with SR was > 100 µM (inactive) throughout. In addition, the GI50 with MCF7, in the assay with SK-OV-3, in the assay with RXF 393, with U-251, in the assay with KM12 and in the assay with TK-10 was > 100 µM (inactive) throughout. For the same compound, the GI50 with BT-549 and in the assay on NCI/ADR-RES was > 100 µM (inactive) in each case.

As for `C=C(C)C(=O)/N=C(\N)NC#N`, the GI50 in the assay on CAKI-1 was 24.4 µM (inactive); with LOX IMVI it was 33 µM (inactive); with UACC-62, 34.7 µM (inactive); in the assay with T47D, 14.3 µM (inactive); with OVCAR-8, 31.4 µM (inactive); with OVCAR-4 it was 19.9 µM (inactive). Also, the GI50 was 161 µM (inactive) in the assay on Hs-578T; 168 µM (inactive) in the assay on OVCAR-5; 20 µM (inactive) in the assay on HL-60; > 63.1 µM (inactive) in the assay with HOP-62; 158 µM (inactive) in the assay on PC-3; 28.1 µM (inactive) in the assay on SR. The GI50 in the assay on MCF7 was 47.5 µM (inactive); in the assay with SK-OV-3, 170 µM (inactive); in the assay with RXF 393, 36.6 µM (inactive); in the assay with U-251, > 76.9 µM (inactive); in the assay with KM12, 59 µM (inactive); in the assay with TK-10 it was 41.7 µM (inactive). Further, the figures for the GI50 in the assay on BT-549 and in the assay with NCI/ADR-RES were 14.8 µM (inactive) and 35.9 µM (inactive), respectively.

Turning to `O=C(O)c1cc(/N=N/c2ccc([As](=O)(O)O)cc2)ccc1O`, the GI50 in the assay with CAKI-1, in the assay on LOX IMVI, with UACC-62, in the assay on T47D, in the assay on OVCAR-8 and in the assay on OVCAR-4 was > 100 µM (inactive) in each case. Moreover, the GI50 in the assay with Hs-578T, with OVCAR-5, with HL-60, with HOP-62, in the assay with PC-3 and with SR was > 100 µM (inactive) in each case. Besides, the GI50 in the assay with MCF7, in the assay with SK-OV-3, with RXF 393, in the assay on U-251, in the assay on KM12 and in the assay on TK-10 was > 100 µM (inactive) each time. Besides, the GI50 in the assay on BT-549 and with NCI/ADR-RES was > 100 µM (inactive) in each case.

On to `CCN(CC)c1ccc(/C=C/C2=NN(c3cccc(S(=O)(=O)O)c3)C3(C2)C(Cl)C(=O)N3c2nc3ccccc3s2)cc1` (stereo not given), for which the GI50 with CAKI-1 was 3.48 µM (inactive); with LOX IMVI, 2.82 µM (inactive); with UACC-62, 7.91 µM (inactive); in the assay on T47D, 3.06 µM (inactive); in the assay with OVCAR-8, 8.99 µM (inactive); with OVCAR-4 it was 4.89 µM (inactive). For the same compound, the GI50 in the assay with Hs-578T is 14.4 µM (inactive); with OVCAR-5, 23.1 µM (inactive); in the assay with HL-60 it was 1.89 µM (inactive); in the assay on HOP-62, 7.36 µM (inactive); in the assay on PC-3 it was 8.28 µM (inactive); in the assay on SR, 2.47 µM (inactive). For the same compound, the GI50 is 6.7 µM (inactive) with MCF7; 12.4 µM (inactive) in the assay on SK-OV-3; 3.98 µM (inactive) in the assay with RXF 393; 3.4 µM (inactive) with U-251; 7.83 µM (inactive) in the assay on KM12; 4.95 µM (inactive) in the assay on TK-10. The GI50 in the assay with BT-549 is 9.25 µM (inactive); with NCI/ADR-RES, 17.9 µM (inactive).

As to `Cc1cc(NC(=O)NC(=O)c2ccccc2NC(=O)C(C)N)ccc1Oc1ncc(Br)cn1` (stereo not given), the GI50 was 0.0173 µM (active) with CAKI-1; 0.173 µM (active) in the assay with LOX IMVI; 0.0693 µM (active) in the assay with UACC-62; 15.1 µM (inactive) in the assay with T47D; 0.141 µM (active) with OVCAR-8; 5.36 µM (inactive) in the assay on OVCAR-4. For the same compound, the GI50 with Hs-578T was 0.0159 µM (active); with OVCAR-5 it was 1.09 µM (active); in the assay on HL-60 it was 0.0131 µM (active); with HOP-62 it was 0.0306 µM (active); in the assay with PC-3, 0.0391 µM (active); in the assay on SR, 0.111 µM (active). Moreover, the concentration for 50% growth inhibition (GI50) is 0.152 µM (active) in the assay on MCF7; 0.0178 µM (active) in the assay on SK-OV-3; 0.0111 µM (active) with RXF 393; 0.202 µM (active) in the assay on U-251; 0.169 µM (active) in the assay with KM12; 1.22 µM (inactive) with TK-10. The results for the GI50 with BT-549 and in the assay on NCI/ADR-RES were 26.8 µM (inactive) and 0.0208 µM (active), respectively.

Turning to `COc1ccc(-n2c(CCC(=O)O)nc3c2C(=O)c2ccccc2C3=O)cc1`, the GI50 with CAKI-1 was > 100 µM (inactive); in the assay on LOX IMVI it was 28.3 µM (inactive); with UACC-62, > 100 µM (inactive); in the assay on T47D, 33 µM (inactive); in the assay with OVCAR-8, > 100 µM (inactive); with OVCAR-4 it was > 100 µM (inactive). Further, the GI50 in the assay on Hs-578T, with OVCAR-5, in the assay with HL-60, in the assay on HOP-62, with PC-3 and with SR was > 100 µM (inactive) in each case. The GI50 is 84.5 µM (inactive) with MCF7; > 100 µM (inactive) in the assay with SK-OV-3; > 100 µM (inactive) in the assay with RXF 393; > 100 µM (inactive) in the assay with U-251; > 100 µM (inactive) in the assay on KM12; > 100 µM (inactive) in the assay with TK-10. Besides, the GI50 with BT-549 and in the assay on NCI/ADR-RES was > 100 µM (inactive) each time.

In the case of `CCOC(=O)CCc1cc(=O)oc2cc(O)cc(O)c12`, the GI50 in the assay with CAKI-1, in the assay with LOX IMVI, in the assay with UACC-62, in the assay with T47D, in the assay with OVCAR-8 and in the assay with OVCAR-4 was > 100 µM (inactive) in each case. The GI50 in the assay on Hs-578T, with OVCAR-5, in the assay on HL-60, with HOP-62, with PC-3 and in the assay with SR was > 100 µM (inactive) each time. The GI50 in the assay on MCF7, in the assay on SK-OV-3, with RXF 393, in the assay on U-251, in the assay with KM12 and in the assay on TK-10 was > 100 µM (inactive) each time. The GI50 in the assay on BT-549 and in the assay on NCI/ADR-RES was > 100 µM (inactive) in each case.

Take `COc1ccc(OC)c(-c2nc3n(c2/C=C2/C(=O)Nc4ccccc42)CCS3)c1`: the GI50 is 51.4 µM (inactive) in the assay on CAKI-1; 51.2 µM (inactive) in the assay with LOX IMVI; 48.4 µM (inactive) with UACC-62; 35.1 µM (inactive) with T47D; 68.1 µM (inactive) with OVCAR-8; 41.5 µM (inactive) in the assay with OVCAR-4. Also, the GI50 in the assay on Hs-578T was 44.8 µM (inactive); in the assay with OVCAR-5, > 100 µM (inactive); in the assay on HL-60, 33.9 µM (inactive); in the assay with HOP-62, 58.6 µM (inactive); in the assay with PC-3 it was 86.5 µM (inactive); with SR, 32.8 µM (inactive). Further, the GI50 was 46.7 µM (inactive) in the assay with MCF7; 72.9 µM (inactive) in the assay on SK-OV-3; 21.4 µM (inactive) with RXF 393; 67 µM (inactive) in the assay on U-251; 30.1 µM (inactive) in the assay with KM12; 41.2 µM (inactive) with TK-10. Also, the figures for the GI50 in the assay with BT-549 and with NCI/ADR-RES were 81.5 µM (inactive) and 34.8 µM (inactive), respectively.

Regarding `Cn1c(=S)[nH]c(N)c(Cc2ccccc2)c1=O`, the GI50 is > 100 µM (inactive) in the assay on CAKI-1; > 100 µM (inactive) in the assay on LOX IMVI; 40.2 µM (inactive) in the assay on UACC-62; 40.3 µM (inactive) in the assay on T47D; 93.8 µM (inactive) in the assay on OVCAR-8; > 100 µM (inactive) in the assay on OVCAR-4. Moreover, the GI50 in the assay on Hs-578T is 39 µM (inactive); with OVCAR-5 it was > 100 µM (inactive); with HL-60 it was > 100 µM (inactive); with HOP-62, > 100 µM (inactive); in the assay with PC-3, > 100 µM (inactive); in the assay on SR, 67.5 µM (inactive). Moreover, the GI50 with MCF7 is > 100 µM (inactive); with SK-OV-3 it was > 100 µM (inactive); in the assay on RXF 393, > 100 µM (inactive); in the assay on U-251, > 100 µM (inactive); with KM12, 66.1 µM (inactive); with TK-10, 81.8 µM (inactive). Besides, the values for the GI50 with BT-549 and with NCI/ADR-RES were > 100 µM (inactive) and 64.4 µM (inactive), respectively.
